Reference: patent US20220332799A1, “HERV INHIBITORS FOR USE IN TREATING TAUOPATHIES” (Deutsches Zentrum Für Neurodegenerative Erkrankungen E.V. …, priority 2019, published 2022)
Entries after “also recorded” stand apart in the source; their conditions may differ.

System: MuERV Env
Assay: Western blot of Env maturation in donor cell lysates and EVs
Assay type: cell-based, mouse
Conditions: donor cells 10 μM, 3 days, vs DMSO
Procedure: Cell lysates and EVs derived from Amprenavir-treated donor cell clone N2a NM-HA^agg s2E were analyzed for Env maturation by Western blot. Amprenavir-treated cell lysate and EVs lack the proteolytical mature Env transmembrane (TM) fragment p15E required for receptor binding. Cleaved products and degradation intermediates were detected by anti-MuLV virus antibody ABIN457298. Presumed bands representing Env precursor protein (gp85 and gp70), Pr15E or cleavage product (p15E) are indicated. • b., c. Aggregate induction in recipient N2a NM-GFP^sol cells cocultured with Amprenavir-pretreated N2a NM-HA^agg s2E donor cells or (c) in recipient cells exposed to EVs derived from Amprenavir-treated donors. • d. EVs from donor clone N2a NM-HA^agg s2E were incubated with increasing concentrations of anti-Env antibody mAb83A25 for 1 h and added to recipient N2a NMGFP^sol cells for 16 h. • e, g. Donor clone N2a NM-HA^agg s2E was transfected with three individual siRNAs (SEQ ID NO 14-19) against endogenous Env (e) or (SEQ ID NO 20-25) against Gag (g). […] MuERV Env and Gag protein levels were analyzed by Western blot. • l. […] Recipient N2a NM-GFP^sol cells were transfected with two siRNAs against XPR1 (SEQ ID NO 26-29), siRNA against mCat-1 (SEQ ID NO 30 and 31) or with non-silencing siRNA control. mRNA knock-down was assessed 48 h post siRNA transfection by quantitative PCR. […]

CC(C)CN(C[C@@H](O)[C@H](Cc1ccccc1)NC(=O)O[C@H]1CCOC1)S(=O)(=O)c1ccc(N)cc1 [Amprenavir]
Env protein maturation to TM p15E: efficiently inhibited Env protein maturation to TM p15E; also recorded: inhibits maturation of endogenous MuERV proteins, including Env
